We go through 19 compounds from patent US20240409536A1, “COMPOUNDS AND METHODS FOR MODULATING SPLICING” (REMIX THERAPEUTICS INC., priority 2021, published 2024).

Experiment [1] deals with HTT mRNA. Description: Splicing RT-qPCR assay, HTT canonical (CJ) and alternative (AJ) junction mRNA. The note with it: Homo sapiens, A673 or K562 cells, 24 hours; for IC50: decrease in canonical junction mRNA; for AC50: increase in alternative junction mRNA. It is filed as cell-based. Put shortly: (§1)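 RT-qPCR read-out: CJ and AJ junction isoforms quantified from cell lysates, normalized to housekeeping GAPDH/GUSB (K562) or PPIA (A673). Cells had 24 h compound exposure, 11-point 3-fold series from 10 uM final, ≤0.25% DMSO.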

The subject of experiment [2] is MYB mRNA. Description: Splicing RT-qPCR assay, MYB canonical (CJ) and alternative (AJ) junction mRNA. It is filed as cell-based. The note with it: Homo sapiens, A673 or K562 cells, 24 hours; for IC50: decrease in canonical junction mRNA; for AC50: increase in alternative junction mRNA. A digest of the protocol: as §1
In experiment [3] the test system is HTT mRNA. Description: Gene panel canonical junction qPCR assay, HTT CJ mRNA decrease. Format: cell-based, human. The note with it: Homo sapiens, canonical junction qPCR, read-out: HTT IC50 (decrease in CJ mRNA levels). A digest of the protocol: (§2)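 A673 or K562 cells treated with compound; canonical exon-exon junction mRNA quantified by cDNA synthesis and RT-qPCR with junction-spanning primer/probe, normalized to GAPDH, GUSB or PPIA and DMSO (2^(−ΔΔCt)). Percent response from set ΔCt assay windows fitted to 4-parameter logistic; IC50 for CJ decrease.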

Experiment [4] has as its system Target C mRNA. Description: Gene panel canonical junction qPCR assay, Target C CJ mRNA decrease. It is filed as cell-based. The note with it: Homo sapiens, canonical junction qPCR, read-out: Target C IC50 (decrease in CJ mRNA levels). Put shortly: as §2

Structures can show the parent of a compound that is named as a salt.

Turning to `Cc1cn2cc(NC(=O)c3ccc(N(C)[C@@H]4C[C@H]5CC[C@@H](C4)N5)c4ccnnc34)cc(F)c2n1` [Compound 156], the IC50 in experiment [1] is over 10000 nM; in experiment [2], 1000 to 10000 nM; in experiment [3], over 10000 nM; in experiment [4], over 10000 nM. The AC50 in experiment [1] was over 10000 nM; in experiment [2] it was 1000 to 10000 nM.
For the compound `Cc1cc2c(N3CCNCC3)ccc(C(=O)Nc3cc(F)c4nc(C)cn4c3)c2nn1` [Compound 159], the IC50 in experiment [1] was 100 to 1000 nM; in experiment [2], under 100 nM; in experiment [3], 100 to 1000 nM; in experiment [4], 1000 to 10000 nM. The AC50 is 100 to 1000 nM in experiment [1] and under 100 nM in experiment [2].
As for `Cc1cn2cc(NC(=O)c3ccc(N4C[C@@H](C)N[C@@H](C)C4)c4ccnnc34)cc(F)c2n1` [Compound 161, 5-(3,5-dimethylpiperazin-1-yl)-N-{8-fluoro-2-methylimidazo[1,2-a]pyridin-6-yl}cinnoline-8-carboxamide 2,2,2-trifluoroacetate], the IC50 is 1000 to 10000 nM in experiment [1], under 100 nM in experiment [2], 1000 to 10000 nM in experiment [3] and 1000 to 10000 nM in experiment [4]. In addition, the AC50 is 1000 to 10000 nM in experiment [1] and under 100 nM in experiment [2].
On to `Cc1ccc2c(N3CCNCC3)ccc(C(=O)Nc3cc(F)c4nc(C)cn4c3)c2n1` [Compound 162, N-{8-fluoro-2-methylimidazo[1,2-a]pyridin-6-yl}-2-methyl-5-(piperazin-1-yl)quinoline-8-carboxam-ide, trifluoroacetic acid], for which the IC50 in experiment [1] was 1000 to 10000 nM; in experiment [2], under 100 nM; in experiment [3] it was 1000 to 10000 nM; in experiment [4], 1000 to 10000 nM. For the same compound, the values for the AC50 in experiment [1] and in experiment [2] were 1000 to 10000 nM and under 100 nM, respectively.
Consider `CC(=O)c1cc(NC(=O)c2ccc(N3CCNCC3)c3ccnnc23)cn2cc(C)nc12` [Compound 163, N-{8-acetyl-2-methylimidazo[1,2-a]pyridin-6-yl}-5-(piperazin-1-yl)cinnoline-8-carboxamide], for which the IC50 in experiment [1] was over 10000 nM; in experiment [2], 1000 to 10000 nM; in experiment [3], over 10000 nM; in experiment [4], over 10000 nM. The values for the AC50 in experiment [1] and in experiment [2] were over 10000 nM and 1000 to 10000 nM, respectively.
With `Cc1cn2cc(NC(=O)c3ccc(N4CCNCC4)c4ccnnc34)nc(C)c2n1` [Compound 164, N-{2,8-dimethylimidazo[1,2-a]pyrazin-6-yl}-5-(piperazin-1-yl)cinnoline-8-carboxamide 2,2,2-trifluoroacetate], the half-inhibitory concentration (IC50) is over 10000 nM in experiment [1], 100 to 1000 nM in experiment [2], over 10000 nM in experiment [3] and over 10000 nM in experiment [4]. Besides, the AC50 is over 10000 nM in experiment [1] and 100 to 1000 nM in experiment [2].
In the case of `Cc1cn2cc(NC(=O)c3ccc(N4CCNCC4)c4cccnc34)cc(F)c2n1` [Compound 165, N-{8-fluoro-2-methylimidazo[1,2-a]pyridin-6-yl}-5-(piperazin-1-yl)quinoline-8-carboxamide], the IC50 in experiment [1] is 1000 to 10000 nM; in experiment [2] it was under 100 nM; in experiment [3] it was 1000 to 10000 nM; in experiment [4], 1000 to 10000 nM. Also, the AC50 is 100 to 1000 nM in experiment [1] and under 100 nM in experiment [2].
On to `Cc1cn2cc(NC(=O)c3ccc(N4CCNCC4)c4nnccc34)cc(F)c2n1` [Compound 166, N-(8-fluoro-2-methylimidazo[1,2-a]pyridin-6-yl)-8-(piperazin-1-yl)cinnoline-5-carboxamide 2,2,2-trifluoroacetate], for which the IC50 in experiment [1], in experiment [2], in experiment [3] and in experiment [4] was over 10000 nM throughout. Further, the AC50 in experiment [1] and in experiment [2] was over 10000 nM in each case.
Regarding `Cc1cn2cc(NC(=O)c3ccc(N4CCNCC4)c4ccnnc34)cc(C#N)c2n1` [Compound 167, N-{8-cyano-2-methylimidazo[1,2-a]pyridin-6-yl}-5-(piperazin-1-yl)cinnoline-8-carboxamide trifluoroacetic acid salt], the IC50 in experiment [1] was 1000 to 10000 nM; in experiment [2] it was 100 to 1000 nM; in experiment [3] it was 1000 to 10000 nM; in experiment [4] it was over 10000 nM. In addition, the AC50 is over 10000 nM in experiment [1] and 100 to 1000 nM in experiment [2].
For `CCc1cc(NC(=O)c2ccc(N3CCNCC3)c3ccnnc23)nn2cc(C)nc12` [Compound 168, N-{8-ethyl-2-methylimidazo[1,2-b]pyridazin-6-yl}-5-(piperazin-1-yl)cinnoline-8-carboxamide trifluoroacetic acid salt], the IC50 in experiment [1] was over 10000 nM; in experiment [2], 1000 to 10000 nM; in experiment [3] it was over 10000 nM; in experiment [4], over 10000 nM. In addition, the values for the AC50 in experiment [1] and in experiment [2] were over 10000 nM and 1000 to 10000 nM, respectively.
On to `COc1ccc2c(N3CCNCC3)ccc(C(=O)Nc3cc(F)c4nc(C)cn4c3)c2n1` [Compound 169, N-{8-fluoro-2-methylimidazo[1,2-a]pyridin-6-yl}-2-methoxy-5-(piperazin-1-yl)quinoline-8-carboxamide], for which the IC50 in experiment [1] is 1000 to 10000 nM; in experiment [2] it was under 100 nM; in experiment [3], 1000 to 10000 nM; in experiment [4] it was 1000 to 10000 nM. Moreover, the AC50 in experiment [1] is 1000 to 10000 nM; in experiment [2], under 100 nM.
For the compound `Cc1cn2cc(NC(=O)c3ccc(N4C[C@@H](C)N[C@@H](C)C4)c4ccnnc34)nc(C)c2n1` [Compound 172, N-{2,8-dimethylimidazo[1,2-a]pyrazin-6-yl}-5-[(3R,5S)-3,5-dimethylpiperazin-1-yl]cinnoline-8-carboxamide], the IC50 in experiment [1] is over 10000 nM; in experiment [2], 100 to 1000 nM; in experiment [3] it was over 10000 nM; in experiment [4], 1000 to 10000 nM. Besides, the AC50 in experiment [1] is over 10000 nM; in experiment [2], under 100 nM.
Consider `COCCOc1ccc2c(N3CCNCC3)ccc(C(=O)Nc3cc(F)c4nc(C)cn4c3)c2n1` [Compound 173, N-{8-fluoro-2-methylimidazo[1,2-a]pyridin-6-yl}-2-(2-methoxyethoxy)-5-(piperazin-1-yl)quinoline-8-carboxamide], for which the IC50 in experiment [1] is over 10000 nM; in experiment [2], under 100 nM; in experiment [3] it was over 10000 nM; in experiment [4], 1000 to 10000 nM. For the same compound, the values for the AC50 in experiment [1] and in experiment [2] were over 10000 nM and under 100 nM, respectively.
Regarding `COc1cc(NC(=O)c2ccc(N3CCNCC3)c3ccnnc23)cn2cc(C)nc12` [Compound 176, N-{8-methoxy-2-methylimidazo[1,2-a]pyridin-6-yl}-5-(piperazin-1-yl)cinnoline-8-carboxamide trifluoroacetate], the IC50 in experiment [1] is over 10000 nM; in experiment [2] it was 100 to 1000 nM; in experiment [3], over 10000 nM; in experiment [4], over 10000 nM. In addition, the AC50 is over 10000 nM in experiment [1] and 100 to 1000 nM in experiment [2].
`Cc1cn2cc(NC(=O)c3ccc(N4CCNCC4)c4ccnnc34)[nH]c(=O)c2n1` [Compound 177, N-{2-methyl-8-oxo-7H-imidazo[1,2-a]pyrazin-6-yl}-5-(piperazin-1-yl)cinnoline-8-carboxamide trifluoroacetic acid salt]: the IC50 in experiment [1], in experiment [2], in experiment [3] and in experiment [4] was 100 to 1000 nM in each case. Moreover, the AC50 in experiment [1] and in experiment [2] was 100 to 1000 nM throughout.
For `Cc1nc(NC(=O)c2ccc(N3CCNCC3)c3ccnnc23)cc2cn(C)nc12` [Compound 178, N-{2,7-dimethylpyrazolo[3,4-c]pyridin-5-yl}-5-(piperazin-1-yl)cinnoline-8-carboxamide], the IC50 in experiment [1] was over 10000 nM; in experiment [2], 100 to 1000 nM; in experiment [3], over 10000 nM; in experiment [4], over 10000 nM. The values for the AC50 in experiment [1] and in experiment [2] were over 10000 nM and 100 to 1000 nM, respectively.
For the compound `COc1nc(NC(=O)c2ccc(N3CCNCC3)c3ccnnc23)cn2cc(C)nc12` [Compound 179, N-{8-methoxy-2-methylimidazo[1,2-a]pyrazin-6-yl}-5-(piperazin-1-yl)cinnoline-8-carboxamide], the IC50 was 1000 to 10000 nM in experiment [1], under 100 nM in experiment [2], 1000 to 10000 nM in experiment [3] and over 10000 nM in experiment [4]. Further, the AC50 was 1000 to 10000 nM in experiment [1] and under 100 nM in experiment [2].
Regarding `Cc1c(O)c(NC(=O)c2ccc(N3CCNCC3)c3ccnnc23)cc2cn(C)nc12` [Compound 181, N-(6-hydroxy-2,7-dimethylindazol-5-yl)-5-(piperazin-1-yl)cinnoline-8-carboxamide], the IC50 in experiment [1] was over 10000 nM; in experiment [2], 100 to 1000 nM; in experiment [3], over 10000 nM; in experiment [4], over 10000 nM. Besides, the concentration at half-maximal activity (AC50) was over 10000 nM in experiment [1] and 1000 to 10000 nM in experiment [2].
On to `Cc1cn2cc(NC(=O)c3ccc(N4CCNCC4)c4ccnnc34)cc(C(C)O)c2n1` (stereo not drawn) [Compound 182, N-[8-(1-hydroxyethyl)-2-methylimidazo[1,2-a]pyridin-6-yl]-5-(piperazin-1-yl)cinnoline-8-carboxamide trifluoroacetate], for which the concentration for half-maximal inhibition (IC50) in experiment [1], in experiment [2], in experiment [3] and in experiment [4] was over 10000 nM throughout. Moreover, the AC50 in experiment [1] and in experiment [2] was over 10000 nM throughout.
